Assay results: patent US20230351587A1, “METHODS AND SYSTEMS FOR PREDICTING NEURODEGENERATIVE DISEASE STATE” (New York Stem Cell Foundation, Inc., priority 2020, published 2023)

Tested on: healthy, LRRK2, and sporadic PD cells
Experiment: Relative distance between treated cell groups and 0.16% DMSO control (morphological profiles)
Type: cell-based, human
Conditions: vs 0.16% DMSO; tile embeddings, single cell embeddings and feature vector models; three increasing doses; FIGS. 13A-13C
Method: In this example, the same automated platform as described above in Examples 1 and 2 was implemented to morphologically profile large collections of cells that were treated using any of a number of perturbations. Example perturbations include bafilomycin, carbonyl cyanide m-chlorophenyl hydrazone (CCCP), MG312, rotenone, valinomycin as well as control groups (untreated and 0.16% DMSO). Specifically, healthy or PD cells of known subtype (e.g., LRKK2 subtype or sporadic subtype) were cultured in vitro and treated with varying doses of the perturbations. For example, for bafilomycin, treatments included 15.63 nM, 31.25 nM, and 62.5 nM bafilomycin. For CCCP, the treatments included 390.5 nM, 781 nM, and 1562 nM. For MG312, the treatments included 234.38 nM, 468.75 nM, and 937.5 nM. For rotenone, the treatments included 7.81 nM, 15.63 nM, and 31.25 nM. For valinomycin, the treatments included 3.91 nM, 7.81 nM, and 15.63 nM.
Following in vitro treatment of healthy cells and PD subtype cells using the aforementioned concentrations of perturbagens, the cells were imaged using the automated imaging platform and subsequently analyzed using predictive models. In particular, three predictive models were implemented: 1) predictive model including tile embeddings, 2) predictive model including single cell embeddings, and 3) predictive model including extracted features (e.g., CellProfiler features). […]

`CO/C1=C\C(C)=C\[C@@H](C)[C@@H](O)[C@@H](C)C/C(C)=C/C=C/[C@H](OC)[C@@H]([C@@H](C)[C@@H](O)[C@H](C)[C@@]2(O)C[C@@H](O)[C@H](C)[C@@H](C(C)C)O2)OC1=O` [Bafilomycin, bafilomycin] was tested, and the “relative distance between treated cell groups in comparison to controls” value was “increase in distance in response to increasing dose”.
